Article PMC10452266, “Divergent Pharmacology and Biased Signaling of the Four Melanocortin-4 Receptor Isoforms in Rainbow Trout (Oncorhynchus mykiss)” (Biomolecules, 2023)
Entries after “also recorded” stand apart in the source; their conditions may differ.

Key:
hMC4R [1] = target: T1, hMC4R (Homo sapiens, UniProt P32245); conditions: cited from earlier work
T1 construct: expressed in transfected cells; host or cells: HEK293T

omMc4rb1 [2] = test: Ligand-binding assay (displacement of 125I-NDP-MSH), omMc4rb1; set-up: species or system rainbow trout (Oncorhynchus mykiss); conditions: AgRP 10^-12 to 10^-7 M, MCL0020 and Ipsen 5i 10^-11 to 10^-6 M, ML00253764 10^-10 to 10^-5 M, transfected HEK293T cells
Protocol: (§1) Human Embryonic Kidney (HEK) 293T cells, provided by American Type Culture Collection (Manassas, VA, USA), were cultured as described previously. Cells were plated into 24-well or 6-well plates pre-coated with 0.1% gelatin and transfected with plasmids by the calcium phosphate precipitation method.
(§2) A binding assay was conducted as described previously. […].
(§3) Binding assays were used to investigate the binding properties of omMc4rs. […].  Figure 6 Ligand-binding properties of omMc4rs. […]. Data are expressed as % of hMC4R binding ± range from duplicate measurements within one experiment. The curves are representative of at least three independent experiments.

ricefield eel Mc4r [3] = test system: ricefield eel Mc4r; set-up: method as in PMID 30075196, PMID 32615281; conditions: stated as similar to trout Mc4rs, ref [15],[51]; cited from earlier work
ciMc4r [4] = conditions: stated as similar to trout Mc4rs, ref [15],[51]; cited from earlier work
omMc4ra1 [5] = test: Effect of antagonists on basal cAMP level, omMc4ra1; assay type: cell-based, rainbow trout (Oncorhynchus mykiss); conditions: 10 nM AgRP, 1 μM MCL0020, 1 μM ML00253764 or 1 μM Ipsen 5i, 1 h, HEK293T, RIA, three independent experiments
Protocol: (§4) Cells were plated into 24-well or 6-well plates pre-coated with 0.1% gelatin and transfected with plasmids by the calcium phosphate precipitation method.
(§5) Intracellular cAMP levels were determined according to previous protocol.

ricefield eel Mc4r [6] = test system: ricefield eel Mc4r; set-up: method as in PMID 30075196; conditions: ref [15]; cited from earlier work
saMc4r [7] = conditions: stated as similar to omMc4rs, ref [51]; cited from earlier work
Description: (§6) Numerous constitutively active mutants have been reported in several GPCRs, resulting in various human diseases, and inverse agonism will be vital for correcting the diseases caused by activating mutations in GPCRs. The constitutive activity of teleost Mc4r may have important physiological functions.

ciMc4r [8] = conditions: stated as similar to omMc4rs, ref [51]; cited from earlier work
Description: as §6

omMc4rb2 [9] = test: Ligand-binding assay (displacement of 125I-NDP-MSH), omMc4rb2; set-up: species or system rainbow trout (Oncorhynchus mykiss); conditions: AgRP 10^-12 to 10^-7 M, MCL0020 and Ipsen 5i 10^-11 to 10^-6 M, ML00253764 10^-10 to 10^-5 M, transfected HEK293T cells
Protocol: as §1, §2, §3

hMC4R [10] = target: T1, hMC4R; conditions: ref [15],[51]; cited from earlier work
omMc4ra2 [11] = test: ERK1/2 phosphorylation assay, omMc4ra2; assay type: cell-based, rainbow trout (Oncorhynchus mykiss); conditions: 1 μM α-MSH, 10 nM AgRP, 1 μM MCL0020, 1 μM Ipsen 5i or 1 μM ML00253764, 5 min, HEK293T, Western blot, at least three independent experiments
Protocol: as §1
(§7) HEK293T cells were transfected with omMC4Rs. Twenty-four hours after transfection, cells were washed twice and starved in media without serum for 24 h. […] Rabbit anti-pERK1/2 antibody (Catalog #4370, Cell Signaling, Beverly, MA, USA) and mouse anti-β-tubulin antibody (Developmental Studies Hybridoma Bank, University of Iowa, Iowa City, IA, USA) were used in this study. The bound antibodies were quantified using ImageJ 1.44 software (National Institute of Health, Bethesda, MD, USA).
(§8) Figure 9 ERK1/2 signaling properties of trout Mc4rs. (A) Immunoblots of pERK1/2 in cells expressing omMc4ra1, omMc4ra2, omMc4rb1, or omMc4rb2. HEK293T cells were transiently transfected with omMc4ra1, omMc4ra2, omMc4rb1, omMc4rb2, or empty vector plasmids and were starved overnight 24 h after transfection. […] Western blots were performed as described in Materials and Methods. (B) Densitometry results of basal pERK1/2 levels of omMc4ra1, omMc4ra2, omMc4rb1, and omMc4rb2. (C) Densitometry results of pERK1/2 level of omMc4ra1. (D) Densitometry results of pERK1/2 level of omMc4ra2. […]

saMc4r [12] = conditions: stated as similar to trout Mc4rs, ref [15],[51]; cited from earlier work
omMc4ra1 [13] = test: ERK1/2 phosphorylation assay, omMc4ra1; assay type: cell-based, rainbow trout (Oncorhynchus mykiss); conditions: 1 μM α-MSH, 10 nM AgRP, 1 μM MCL0020, 1 μM Ipsen 5i or 1 μM ML00253764, 5 min, HEK293T, Western blot, at least three independent experiments
Protocol: as §1, §7, §8

omMc4rb1 [14] = test: ERK1/2 phosphorylation assay, omMc4rb1; assay type: cell-based, rainbow trout (Oncorhynchus mykiss)
Protocol: as §1, §7
Figure 9 ERK1/2 signaling properties of trout Mc4rs. (A) Immunoblots of pERK1/2 in cells expressing omMc4ra1, omMc4ra2, omMc4rb1, or omMc4rb2. HEK293T cells were transiently transfected with omMc4ra1, omMc4ra2, omMc4rb1, omMc4rb2, or empty vector plasmids and were starved overnight 24 h after transfection. […] Western blots were performed as described in Materials and Methods. (B) Densitometry results of basal pERK1/2 levels of omMc4ra1, omMc4ra2, omMc4rb1, and omMc4rb2. (C) Densitometry results of pERK1/2 level of omMc4ra1. (D) Densitometry results of pERK1/2 level of omMc4ra2. (E) Densitometry results of pERK1/2 level of omMc4rb1. (F) Densitometry results of pERK1/2 level of omMc4rb2.

omMc4ra2 [15] = test: Ligand-binding assay (displacement of 125I-NDP-MSH), omMc4ra2; set-up: species or system rainbow trout (Oncorhynchus mykiss); conditions: AgRP 10^-12 to 10^-7 M, MCL0020 and Ipsen 5i 10^-11 to 10^-6 M, ML00253764 10^-10 to 10^-5 M, transfected HEK293T cells
Protocol: as §1, §2, §3

omMc4ra2 [16] = test: Effect of antagonists on basal cAMP level, omMc4ra2; assay type: cell-based, rainbow trout (Oncorhynchus mykiss); conditions: 10 nM AgRP, 1 μM MCL0020, 1 μM ML00253764 or 1 μM Ipsen 5i, 1 h, HEK293T, RIA, three independent experiments
Protocol: as §4, §5

omMc4ra1 [17] = test: Ligand-binding assay (displacement of 125I-NDP-MSH), omMc4ra1; set-up: species or system rainbow trout (Oncorhynchus mykiss); conditions: AgRP 10^-12 to 10^-7 M, MCL0020 and Ipsen 5i 10^-11 to 10^-6 M, ML00253764 10^-10 to 10^-5 M, transfected HEK293T cells
Protocol: as §1, §2, §3

saMc4r [18] = conditions: saMc4r (spotted scat); ref [48],[51],[81]; cited from earlier work
Description: (§9) MC4R-mediated ERK1/2 signaling has a crucial role in the modulation of energy homeostasis. Although teleost Mc4rs have much higher basal activities in Gs-cAMP signaling, constitutive activation of ERK1/2 signaling is only observed in topmouth culter Mc4r but not in saMc4r and ciMc4r. […] Our data documented that these three compounds only activated ERK1/2 signaling of omMc4rb1 but not the other three omMc4rs (Figure 9).

ciMc4r [19] = conditions: ciMc4r (grass carp); ref [48],[51],[81]; cited from earlier work
Description: as §9

hMC4R [20] = target: T1, hMC4R; conditions: ref [48],[51],[81]; cited from earlier work
Description: as §9

omMc4rb2 [21] = test: ERK1/2 phosphorylation assay, omMc4rb2; assay type: cell-based, rainbow trout (Oncorhynchus mykiss); conditions: 1 μM α-MSH, 10 nM AgRP, 1 μM MCL0020, 1 μM Ipsen 5i or 1 μM ML00253764, 5 min, HEK293T, Western blot, at least three independent experiments
Protocol: as §1, §7, §8

omMc4rb1 [22] = test: Effect of antagonists on basal cAMP level, omMc4rb1; assay type: cell-based, rainbow trout (Oncorhynchus mykiss); conditions: 10 nM AgRP, 1 μM MCL0020, 1 μM ML00253764 or 1 μM Ipsen 5i, 1 h, HEK293T, RIA, three independent experiments
Protocol: as §4, §5

omMc4rb2 [23] = test: Effect of antagonists on basal cAMP level, omMc4rb2; assay type: cell-based, rainbow trout (Oncorhynchus mykiss)
Protocol: as §4, §5

[24] = concluded from binding, cAMP and pERK1/2 results

T1 sequence (P32245 whole entry): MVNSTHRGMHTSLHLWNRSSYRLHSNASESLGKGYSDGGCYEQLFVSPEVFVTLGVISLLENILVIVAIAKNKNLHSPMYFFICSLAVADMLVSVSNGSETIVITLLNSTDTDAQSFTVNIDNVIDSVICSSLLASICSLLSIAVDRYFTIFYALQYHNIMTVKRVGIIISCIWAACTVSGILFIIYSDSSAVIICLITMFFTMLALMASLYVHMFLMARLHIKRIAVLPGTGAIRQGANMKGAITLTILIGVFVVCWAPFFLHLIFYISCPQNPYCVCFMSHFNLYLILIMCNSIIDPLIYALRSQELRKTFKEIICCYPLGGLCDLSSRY

Question: With `COc1ccc(Br)cc1CCc1c(F)cccc1C1=NCCN1` [ML00253764, 2-[2-[2-(5-bromo-2-methoxyphenyl)-ethyl]-3-fluorophenyl]-4,5-dihydro-1H-imidazol] as the compound, how does the “basal activities of WT and constitutively active MC4R mutants” value (hMC4R [1]; WT and mutants, ref [48],[51],[57],[58],[80]) read?
Answer: decrease the basal activities

Question: And the “basal activity of hMC4R and constitutively active mutant hMC4Rs” value (hMC4R [1]; hMC4R and mutants, ref [1],[28],[48],[51])?
Answer: reduced by inverse agonists

Question: What about the “displacement of 125I-NDP-MSH binding” value (omMc4rb1 [2]) of the same compound?
Answer: could not displace

Question: What about the “orthosteric binding by displacing radiolabeled NDP-MSH” value (ricefield eel Mc4r [3]) of the same compound?
Answer: neither ML00253764 nor Ipsen 5i bound

Question: What about the “orthosteric binding by displacing radiolabeled NDP-MSH” value (ciMc4r [4]) of the same compound?
Answer: neither ML00253764 nor Ipsen 5i bound

Question: And the “effect on basal cAMP level” value (omMc4ra1 [5])?
Answer: did not cause significant effects on the cAMP levels

Question: And the “basal cAMP generation” value (ricefield eel Mc4r [6])?
Answer: could decrease basal cAMP generation

Question: And the “effect on cAMP levels” value (saMc4r [7])?
Answer: did not cause significant effects on the cAMP levels

Question: And the “effect on cAMP levels” value (ciMc4r [8])?
Answer: did not cause significant effects on the cAMP levels

Question: And the “displacement of 125I-NDP-MSH binding” value (omMc4rb2 [9])?
Answer: could not displace

Question: What about the “orthosteric binding” value (hMC4R [10]) of the same compound?
Answer: bind to hMC4R orthosterically

Question: And the “effect on ERK1/2 phosphorylation” value (omMc4ra2 [11])?
Answer: no effect

Question: What about the “orthosteric binding by displacing radiolabeled NDP-MSH” value (saMc4r [12]) of the same compound?
Answer: neither ML00253764 nor Ipsen 5i bound

Question: And the “effect on ERK1/2 phosphorylation” value (omMc4ra1 [13])?
Answer: not by ML00253764, Ipsen 5i, or MCL0020

Question: What about the “effect on ERK1/2 phosphorylation” value (omMc4rb1 [14]; 1 μM α-MSH, 10 nM AgRP, 1 μM MCL0020, 1 μM Ipsen 5i or 1 μM ML00253764, 5 min, HEK293T, Western blot, at least three independent experiments) of the same compound?
Answer: significantly increased

Question: And the “biased signaling, cAMP versus ERK1/2” value (omMc4rb1 [14]; [24])?
Answer: biased allosteric modulators for omMc4rb1 with selective activation on ERK1/2 signaling

Question: And the “displacement of 125I-NDP-MSH binding” value (omMc4ra2 [15])?
Answer: could not displace

Question: And the “effect on basal cAMP level” value (omMc4ra2 [16])?
Answer: did not cause significant effects on the cAMP levels

Question: What about the “displacement of 125I-NDP-MSH binding” value (omMc4ra1 [17]) of the same compound?
Answer: could not displace

Question: And the “biased signaling, Gs-cAMP versus ERK1/2” value (saMc4r [18])?
Answer: preferred activation on ERK1/2 signaling

Question: And the “biased signaling, Gs-cAMP versus ERK1/2” value (ciMc4r [19])?
Answer: preferred activation on ERK1/2 signaling

Question: What about the “biased signaling, Gs-cAMP versus ERK1/2” value (hMC4R [20]) of the same compound?
Answer: preferred activation on ERK1/2 signaling

Question: What about the “effect on ERK1/2 phosphorylation” value (omMc4rb2 [21]) of the same compound?
Answer: no effect

Question: And the “effect on basal cAMP level” value (omMc4rb1 [22])?
Answer: did not cause significant effects on the cAMP levels

Question: And the “effect on basal cAMP level” value (omMc4rb2 [23]; 10 nM AgRP, 1 μM MCL0020, 1 μM ML00253764 or 1 μM Ipsen 5i, 1 h, HEK293T, RIA, three independent experiments)?
Answer: acted as an agonist for omMcrb2 and significantly increasing the cAMP levels; also recorded: did not cause significant effects on the cAMP levels; also recorded: could stimulate cAMP signaling

Question: What about the “biased signaling, cAMP versus ERK1/2” value (omMc4rb2 [23]; [24]) of the same compound?
Answer: allosteric agonist for omMc4rb2, preferentially activating Gs-cAMP signaling
